These results are taken from patent publication US20090142429A1, “SILICIBACTER SP. STRAIN USEFUL FOR GENETIC TRANSFORMATION OF MARINE ALGAE AND PRODUCTION OF ANTIBIOTIC AGENTS” (UNIVERSITY OF MARYLAND BIOTECHNOLOGY INSTITUTE, priority 2005, published 2009).

Molecules are shown by their SMILES.

For the assay, the system named is Silicibacter sp. strain TM1040. In words: Chemotaxis plate screening assay (change in motile colony morphology). As to Change in morphology with carbon source Alanine: key: −: minus indicates no change compared to distilled water or no attractant controls; +: either one or two pluses indicates moderate to strong alteration in motile colony phenotype (respectively); ++: either one or two pluses indicates moderate to strong alteration in motile colony phenotype (respectively). As to Change in morphology with carbon source Glucose: key: −: minus indicates no change compared to distilled water or no attractant controls; +: either one or two pluses indicates moderate to strong alteration in motile colony phenotype (respectively); ++: either one or two pluses indicates moderate to strong alteration in motile colony phenotype (respectively). As to Change in morphology with carbon source Glycerol: key: −: minus indicates no change compared to distilled water or no attractant controls; +: either one or two pluses indicates moderate to strong alteration in motile colony phenotype (respectively); ++: either one or two pluses indicates moderate to strong alteration in motile colony phenotype (respectively). As to Response: change in motile colony morphology of TM1040 in response to attractants, compared to the control: key: −: minus indicates no change compared to distilled water or no attractant controls; +: either one or two pluses indicates moderate to strong alteration in motile colony phenotype (respectively); ++: either one or two pluses indicates moderate to strong alteration in motile colony phenotype (respectively). It is filed as cell-based. Conditions: for Change in morphology with carbon source Alanine / Change in morphology with carbon source Glucose / Change in morphology with carbon source Glycerol / Change in morphology with carbon source Succinate: BM motility agar; for Change in morphology with carbon source Alanine: alanine as single carbon source; for Change in morphology with carbon source Glucose: glucose as single carbon source; for Change in morphology with carbon source Glycerol: glycerol as single carbon source; for Change in morphology with carbon source Succinate: succinate as single carbon source. The protocol:
Following 36 h of incubation, a putative attractant was placed approximately 5 cm from the site of inoculation (or 2.5 cm in front of the periphery of motile cells). Possible chemoattractant compounds were administered as either a sterile solid or concentrated stock solutions. The cells were further incubated for 16 h to allow for additional outward movement, at which time measurement of diameter, shape, and chemotaxis rings internal to the motile colony were made.
[…] Bacteria inoculated into the center of the agar consume nutrients and create a concentration gradient that increases outward from the point of inoculation. The bacteria sense the increasing gradient and swim outwards, seeking higher concentrations of nutrients, which is manifested as a symmetrical “motile” colony. If an attractant is placed at a short distance in front of the advancing motile colony, it forms a second gradient moving towards the oncoming cells that will affect the symmetry of the colony by reducing the net outward swimming of the bacteria.

Consider `NC(=O)C[C@H](N)C(=O)O` [asparagine], for which the “Response: change in motile colony morphology of TM1040 in response to attractants, compared to the control” value (BM glycerol motility agar) is recorded as “++”.

For the molecule `N[C@@H](Cc1c[nH]c2ccccc12)C(=O)O` [tryptophan], the “Response: change in motile colony morphology of TM1040 in response to attractants, compared to the control” value (BM glycerol motility agar) is reported as “+”.

Turning to `N=C(N)NCCC[C@H](N)C(=O)O` [arginine], the “Response: change in motile colony morphology of TM1040 in response to attractants, compared to the control” value (BM glycerol motility agar) is reported as “++”.

Regarding `C[C@@H](O)[C@H](N)C(=O)O` [threonine], the “Response: change in motile colony morphology of TM1040 in response to attractants, compared to the control” value (BM glycerol motility agar) is reported as “++”.

As to `N[C@@H](CS)C(=O)O` [cysteine], the “Response: change in motile colony morphology of TM1040 in response to attractants, compared to the control” value (BM glycerol motility agar) is on record as “+”.

As to `OCC(O)CO` [glycerol], the “Response: change in motile colony morphology of TM1040 in response to attractants, compared to the control” value (BM glycerol motility agar) is recorded as “+”.

Take `N[C@@H](Cc1ccc(O)cc1)C(=O)O` [tyrosine]: the “Response: change in motile colony morphology of TM1040 in response to attractants, compared to the control” value (BM glycerol motility agar) is “+”.

For the molecule `N[C@@H](CC(=O)O)C(=O)O` [aspartic acid], the “Response: change in motile colony morphology of TM1040 in response to attractants, compared to the control” value (BM glycerol motility agar) is recorded as “++”.

Regarding `N[C@@H](Cc1ccccc1)C(=O)O` [phenylalanine], the “Response: change in motile colony morphology of TM1040 in response to attractants, compared to the control” value (BM glycerol motility agar) is “++”.

`O=C[C@H](O)[C@@H](O)[C@@H](O)[C@H](O)CO` [Galactose]: the “Change in morphology with carbon source Alanine” value is given as “−”, the “Change in morphology with carbon source Glucose” value is “−”, the “Change in morphology with carbon source Glycerol” value is on record as “++” and the “Change in morphology with carbon source Succinate” value was “+”. Under “BM glycerol motility agar”, the “Response: change in motile colony morphology of TM1040 in response to attractants, compared to the control” value is given as “++” and the “chemotactic response of TM1040 in plate assay” value (from here on “chemotactic response of TM1040”) was “responded positively”.

As for `N[C@@H](Cc1c[nH]cn1)C(=O)O` [histidine], the “Response: change in motile colony morphology of TM1040 in response to attractants, compared to the control” value (BM glycerol motility agar) is listed as “+”.

For `C=CC(=O)O` [acrylate], the “Change in morphology with carbon source Alanine” value is “+”, the “Change in morphology with carbon source Glucose” value is recorded as “+”, the “Change in morphology with carbon source Glycerol” value is “++” and the “Change in morphology with carbon source Succinate” value is “++”. Further, where the note is “BM glycerol motility agar”, the “Response: change in motile colony morphology of TM1040 in response to attractants, compared to the control” value was “++” and the “chemotactic response of TM1040” value was “responded strongly”. Besides, the “chemotactic response of TM1040” value (glucose background (BM glucose)) is on record as “moderate response”.

In the case of `O=C(O)CCS` [MPA, 3-mercaptopropionate], where the note is “BM glycerol motility agar”, the “Response: change in motile colony morphology of TM1040 in response to attractants, compared to the control” value is “+” and the “chemotactic response of TM1040” value is “only weakly”.

As for `OC[C@H]1O[C@@H](O[C@H]2[C@H](O)[C@@H](O)C(O)O[C@@H]2CO)[C@H](O)[C@@H](O)[C@H]1O` (stereo partly drawn) [Lactose], the “Change in morphology with carbon source Alanine” value is on record as “−”, the “Change in morphology with carbon source Glucose” value is given as “−”, the “Change in morphology with carbon source Glycerol” value was “−” and the “Change in morphology with carbon source Succinate” value is listed as “−”. Also, the “Response: change in motile colony morphology of TM1040 in response to attractants, compared to the control” value (BM glycerol motility agar) is given as “−”.

With `N[C@@H](CCC(=O)O)C(=O)O` [glutamic acid], the “Change in morphology with carbon source Alanine” value is “−”, the “Change in morphology with carbon source Glucose” value is “−”, the “Change in morphology with carbon source Glycerol” value is “++” and the “Change in morphology with carbon source Succinate” value is recorded as “+”. Besides, where the note is “BM glycerol motility agar”, the “Response: change in motile colony morphology of TM1040 in response to attractants, compared to the control” value is “++”.

Consider `C[S+](C)[O-]` [DMSO, dimethyl sulfoxide], for which the “Change in morphology with carbon source Alanine” value is “−”, the “Change in morphology with carbon source Glucose” value is listed as “−”, the “Change in morphology with carbon source Glycerol” value was “−” and the “Change in morphology with carbon source Succinate” value was “−”. Further, for the setting “BM glycerol motility agar”, the “Response: change in motile colony morphology of TM1040 in response to attractants, compared to the control” value is listed as “−”.

In the case of `OC[C@H]1O[C@@](CO)(O[C@H]2O[C@H](CO)[C@@H](O)[C@H](O)[C@H]2O)[C@@H](O)[C@@H]1O` [sucrose], where the note is “BM glycerol motility agar”, the “Response: change in motile colony morphology of TM1040 in response to attractants, compared to the control” value is listed as “++” and the “chemotactic response of TM1040” value is “responded positively”.

Turning to `C[C@H](N)C(=O)O` [Alanine], the “Change in morphology with carbon source Alanine” value is “−”, the “Change in morphology with carbon source Glucose” value is “−”, the “Change in morphology with carbon source Glycerol” value was “++” and the “Change in morphology with carbon source Succinate” value is “+”. Moreover, the “Response: change in motile colony morphology of TM1040 in response to attractants, compared to the control” value (BM glycerol motility agar) is on record as “++”.

For `O=C[C@H](O)[C@@H](O)[C@H](O)CO` [xylose], under “BM glycerol motility agar”, the “Response: change in motile colony morphology of TM1040 in response to attractants, compared to the control” value is reported as “−”.

With `O=C[C@@H](O)[C@H](O)[C@H](O)CO` [arabinose], for the setting “BM glycerol motility agar”, the “Response: change in motile colony morphology of TM1040 in response to attractants, compared to the control” value is on record as “−” and the “chemotactic response of TM1040” value is listed as “no detectable change in the appearance of the motile colony”.

As for `O=C(CO)[C@@H](O)[C@H](O)[C@H](O)CO` [fructose], for the setting “BM glycerol motility agar”, the “Response: change in motile colony morphology of TM1040 in response to attractants, compared to the control” value is on record as “−” and the “chemotactic response of TM1040” value is “no detectable change in the appearance of the motile colony”.

Turning to `C[C@H](O)[C@@H](O)[C@@H](O)[C@H](O)C=O` [fucose], the “Response: change in motile colony morphology of TM1040 in response to attractants, compared to the control” value (BM glycerol motility agar) is given as “−”.

For the molecule `CC[C@H](C)[C@H](N)C(=O)O` [isoleucine], the “Response: change in motile colony morphology of TM1040 in response to attractants, compared to the control” value (BM glycerol motility agar) is listed as “+”.

In the case of `O=C[C@H](O)[C@H](O)[C@H](O)CO` [ribose], the “Response: change in motile colony morphology of TM1040 in response to attractants, compared to the control” value (BM glycerol motility agar) is “−”.

Consider `CC(C)C[C@H](N)C(=O)O` [leucine], for which the “Response: change in motile colony morphology of TM1040 in response to attractants, compared to the control” value (BM glycerol motility agar) is on record as “+”.

In the case of `O=C(O)/C=C/C(=O)O` [fumurate], where the note is “BM glycerol motility agar”, the “Response: change in motile colony morphology of TM1040 in response to attractants, compared to the control” value is “++” and the “chemotactic response of TM1040” value is “strong positive response”.

As to `N[C@@H](CO)C(=O)O` [serine], the “Response: change in motile colony morphology of TM1040 in response to attractants, compared to the control” value (BM glycerol motility agar) is “+”.

On to `CC(=O)N[C@H]1C(O)O[C@H](CO)[C@@H](O)[C@@H]1O` (stereo partly drawn) [N-acetylglucosamine], for which the “Change in morphology with carbon source Alanine” value was “+”, the “Change in morphology with carbon source Glucose” value is reported as “−”, the “Change in morphology with carbon source Glycerol” value was “++” and the “Change in morphology with carbon source Succinate” value was “+”. Also, where the note is “BM glycerol motility agar”, the “Response: change in motile colony morphology of TM1040 in response to attractants, compared to the control” value is reported as “++” and the “chemotactic response of TM1040” value was “responded positively”.

Consider `O=C(O)[C@@H]1CCCN1` [proline], for which the “Response: change in motile colony morphology of TM1040 in response to attractants, compared to the control” value (BM glycerol motility agar) was “++”.

As to `OC[C@H]1O[C@H](O[C@H]2[C@H](O)[C@@H](O)[C@H](O)O[C@@H]2CO)[C@H](O)[C@@H](O)[C@@H]1O` [maltose], the “Change in morphology with carbon source Alanine” value is given as “++”, the “Change in morphology with carbon source Glucose” value is on record as “−”, the “Change in morphology with carbon source Glycerol” value was “+” and the “Change in morphology with carbon source Succinate” value is recorded as “++”. In addition, where the note is “BM glycerol motility agar”, the “Response: change in motile colony morphology of TM1040 in response to attractants, compared to the control” value was “+” and the “chemotactic response of TM1040” value is “responded positively”.
